Assay results taken from patent US12427120B2, “Compositions comprising guaifenesin and flavour compounds containing an isovanillyl group” (SYMRISE AG, priority 2018, dated 2025).
Where “and” joins values, the source holds several entries; their conditions need not be identical. Equal values may be shown once. Marks after values point to notes of the source that are not given here.

Columns and labels:
[1] = system: guaifenesin-induced bitterness perception; experiment: Sensory panel test of guaifenesin-induced bitterness perception (sip and spit, scale 0 to 100); assay type: in vivo, human; conditions: trained panel n=20 to 30
Experimental: To verify the effect of hesperetin and phyllodulcin on guaifenesin-induced bitterness perception, an aqueous solution of 1.3 g/l guaifenesin (1) was tested against an aqueous solution containing 1.3 g/l guaifenesin and 100 mg/l hesperetin (2) or 7 mg/l phyllodulcin (3) or 100 mg/l homoeriodictyol as comparison (4). The test was conducted as a randomized comparison test in a trained sensory panel (n=20 to 30) via a sip and spit procedure. The panellists tasted both solutions in a blinded fashion and rated bitterness on a scale of 0 to 100.

HGT-1 cells = experiment: Guaifenesin-induced acid (proton) secretion in HGT-1 cells; assay type: cell-based, Human; conditions: for change in proton secretory activity of HGT-1 cells compared to 10 mM guaifenesin alone: 30 μM co-incubated with 10 mM guaifenesin, from 10 min onwards
Source text: Human gastric tumour cell line 1 (HGT-1; Laboisse C. L.; Augeron C.; Couturier-Turpin M. H.; Gespach C.; Cheret A. M.; Potet F., Characterization of a newly established human gastric cancer cell line HGT-1 bearing histamine H2-receptors, Canc. Res., 1982, 42, 1541 to 1548) is a suitable screening tool for detecting the interaction of bitter agents and bitter modulating substances (Liszt, K. I.; Hans, J.; Ley, J. P.; Kock, E.; Somoza, V., Characterization of bitter compounds via modulation of proton secretion in human gastric parietal cells in culture, J. Agric. Food Chem., 2018, 66 (10), 2295-2300.). Therefore, the effect of hesperetin and phyllodulcin on guaifenesin-induced acid secretion in the HGT-1 cell line was determined to predict the modulation of guaifenesin-induced bitterness by hesperetin and phyllodulcin. To this aim, HGT-1 cells were cultured under standard conditions and passaged at ca. 80% confluence. […] HGT-1 cells were pre-loaded with (acetyloxy)methyl-3-(acetyloxy)-10-(dimethylamino)-3′-oxo-spiro[7H-benzo[c]xanthene-7,1′(3H)-isobenzofuran]-ar′-carboxylate and incubated in 130 mM NaCl 130, 4.7 mM KCl, 1.3 mM CaCl2), 1.2 mM MgSO4, 1.2 mM KH2PO4, 11.7 mM glucose, 10 mM HEPES 10, 20 μM 4,4′-Diisothiocyanatostilbene-2,2′-disulfonic acid disodium and 20 μM 5-(N-Ethyl-N-isopropyl)amiloride at pH 7.4. Fluorescence recordings were performed with an excitation wavelength of 488 nm and monitoring the emission wavelengths of 580 nm and 640 nm, respectively, each with a 20 nm bandwidth. […]
The data in Table 1 and Table 2 are presented as mean±SEM derived from 3 biological replicates and 6 to 9 technical replicates. Outliers were identified using the Nalimov test, statistical significance was tested one-way ANOVA with Tukey's range test for multiple comparisons and Bonferroni correction, establishing the threshold for significance at p<0.01. Accordingly, data are marked with *(p<0.007), **(p<0.001) or ***(p<0.0001). Control: untreated cells

guaifenesin bitterness = conditions: 200 ppm (200 mg/l, 0.2 mg/ml) HED against 13 mg/ml guaifenesin; cited from earlier work
[2] = 100 mg/l (racemic) in aqueous 1.3 g/l guaifenesin versus 1.3 g/l guaifenesin
[3] = 30 μM flavour compound co-incubated with 10 mM guaifenesin, time-point 0 min
[4] = 30 μM flavour compound co-incubated with 10 mM guaifenesin, time-point 5 min
[5] = 30 μM flavour compound co-incubated with 10 mM guaifenesin, time-point 10 min
[6] = 30 μM flavour compound co-incubated with 10 mM guaifenesin, time-point 15 min
[7] = 30 μM flavour compound co-incubated with 10 mM guaifenesin, time-point 20 min
[8] = 30 μM flavour compound co-incubated with 10 mM guaifenesin, time-point 25 min
[9] = 30 μM flavour compound co-incubated with 10 mM guaifenesin, time-point 30 min

Row | SMILES | Modulation versus control (relative difference in bitter ratings) [1, 2] [%] | change in proton secretory activity of HGT-1 cells compared to 10 mM guaifenesin alone (HGT-1 cells) | proton secretory activity (log 2 transformed ratio of treated versus untreated cells), mean (HGT-1 cells; [3]) | proton secretory activity (log 2 transformed ratio of treated versus untreated cells), mean (HGT-1 cells; [4]) | proton secretory activity (log 2 transformed ratio of treated versus untreated cells), mean (HGT-1 cells; [5]) | proton secretory activity (log 2 transformed ratio of treated versus untreated cells), mean (HGT-1 cells; [6]) | proton secretory activity (log 2 transformed ratio of treated versus untreated cells), mean (HGT-1 cells; [7]) | proton secretory activity (log 2 transformed ratio of treated versus untreated cells), mean (HGT-1 cells; [8]) | proton secretory activity (log 2 transformed ratio of treated versus untreated cells), mean (HGT-1 cells; [9]) | reduction in guaifenesin bitterness (guaifenesin bitterness) | proton secretory activity (log 2 transformed ratio of treated versus untreated cells), mean (HGT-1 cells; 10 mM guaifenesin alone, time-point 0 min) | proton secretory activity (log 2 transformed ratio of treated versus untreated cells), mean (HGT-1 cells; 10 mM guaifenesin alone, time-point 5 min) | proton secretory activity (log 2 transformed ratio of treated versus untreated cells), mean (HGT-1 cells; 10 mM guaifenesin alone, time-point 10 min) | proton secretory activity (log 2 transformed ratio of treated versus untreated cells), mean (HGT-1 cells; 10 mM guaifenesin alone, time-point 15 min) | proton secretory activity (log 2 transformed ratio of treated versus untreated cells), mean (HGT-1 cells; 10 mM guaifenesin alone, time-point 20 min) | proton secretory activity (log 2 transformed ratio of treated versus untreated cells), mean (HGT-1 cells; 10 mM guaifenesin alone, time-point 25 min) | proton secretory activity (log 2 transformed ratio of treated versus untreated cells), mean (HGT-1 cells; 10 mM guaifenesin alone, time-point 30 min) | Modulation versus control (relative difference in bitter ratings) ([1]; 7 mg/l (98 weight %, 95 mol % enantiomeric purity) in aqueous 1.3 g/l guaifenesin versus 1.3 g/l guaifenesin) [%]
1 | COc1ccc([C@@H]2CC(=O)c3c(O)cc(O)cc3O2)cc1O (racemic) [hesperetin, (2S)-/(2R)-5,7-dihydroxy-2-(3-hydroxy-4-methoxyphenyl)-4-chromanone] | −25 | significant decrease | −0.132 | 0.05735*** | −0.04329* | 0.03955*** | 0.002334*** | 0.01577*** | 0.02592*** |  |  |  |  |  |  |  |  | 
2 | COc1cc([C@@H]2CC(=O)c3c(O)cc(O)cc3O2)ccc1O (racemic) [homoeriodictyol, (2S)-/(2R)-5,7-Dihydroxy-2-(4-hydroxy-3-methoxyphenyl)-4-chromanone, reference compound] | −12 |  |  |  |  |  |  |  |  | about 40% |  |  |  |  |  |  |  | 
3 | COc1ccccc1OCC(O)CO (stereo not drawn) [guaifenesin, 3-(2-methoxyphenoxy-)1,2-propanediol] |  |  |  |  |  |  |  |  |  |  | 0.2711 and 0.2596 | 0.2378 and 0.2475 | 0.2801 and 0.187 | 0.2178 and 0.2259 | 0.323 and 0.265 | 0.3953 and 0.1861 | 0.2706 and 0.2473 | 
4 | COc1ccc([C@H]2Cc3cccc(O)c3C(=O)O2)cc1O [phyllodulcin, (3S)-/(3R)-8-hydroxy-3-(3-hydroxy-4-methoxy-phenyl)isochroman-1-one] |  | significant decrease | −0.08165* | 0.0579*** | 0.07294*** | −0.04172 | 0.08512* | −0.1469 | 0.1433*** |  |  |  |  |  |  |  |  | −15
